Entries after “also recorded” stand apart in the source; their conditions may differ. Where no end group is shown, it is not given here. [ ]: non-standard residue; d: D form.
Tests used:
Rat cortical neurons [1] = test: Duration of neuroprotection afforded by TAT-NR2B9c in the face of excitotoxic insults (NMDA-induced cell death, pyknotic nuclei as % of total); type: cell-based; conditions: for significant protection (duration after washout): peptide 10 μM for 1 hr, then washout
Experimental: Rat cortical neurons, taken from E21 rats, were cultured for 7-9 days in vitro in Neurobasal-A medium+B-27 supplement (both invitrogen), 1 mM glutamine, +50 units/ml penicillin, 50 μg/ml streptomycin. • 1. At varying times prior to compound exposure, neurons were removed from Neurobasal-A based culture medium, and placed into “transfection medium” (TM; Bading et al. (1993), Science 260, 181-186): 10% (Minimum Essential Medium, invitrogen (21090022), containing Earles salt, but no L-glutamine), 90% Salt-Glucose-Glycine (SGG) medium SGG: 114 mM NaCl, 0.219% NaHCO3, 5.292 mM KCl, 1 mM MgCl2, 2 mM CaCl2, 10 mM HEPES, 1 mM Glycine, 30 mM Glucose, 0.5 mM sodium pyruvate, 0.1% Phenol Red, insulintransferrin-selenite supplement (Sigma, 7.5 μg insulin/ml; 7.5 μg transferrin/ml and 7.5 ng sodium selenite/ml); final osmolarity 325 mosm/l). All subsequent steps took place in TM. • 2. Neurons were then exposed to inventive fusion peptides at 10 μM for 1 hr. (particularly TAT-NR2B9c peptides in L-form (L-TAT-L-NR2B9c sequence YGRKKRRQRRR-KLSSIESDV (SEQ ID NO: 32), identical to US 20030050243) and their D-form (D-TAT-D-NR2B9c, sequence vdseisslk-rrrqrrkkrgyin (SEQ ID NO: 33))) • 3. After 1 hr neurons were washed once in TM to remove peptide. • 4. After a varying period of time, neurons were exposed to NMDA at either 20 or 40 μM for 1 hr, after which neurons are placed in TM for 24 h. • 5. Neurons were fixed (3% paraformaldehyde) and stained (DAPI, 4′,6-Diamidino-2-phenylindole). Number of pyknotic nuclei as a % of total is counted. Experiments were performed in triplicate.

Rat cortical neurons [2] = test: Duration of neuroprotection afforded by (Arg)8-NR2B9c in the face of excitotoxic insults (NMDA-induced cell death, pyknotic nuclei as % of total); type: cell-based
Experimental: Rat cortical neurons, taken from E21 rats, were cultured for 7-9 days in vitro in Neurobasal-A medium+B-27 supplement (both Invitrogen), 1 mM glutamine, +50 units/ml penicillin, 50 μg/ml streptomycin • 1. At varying times prior to peptide exposure, neurons were removed from Neurobasal-A based culture medium, and placed into TM (see above) with the inclusion of Insulin-transferrin-selenite supplement (Sigma). All subsequent steps took place in TM (see above). • 2. Neurons were then exposed to inventive fusion peptides at 10 μM for 1 hr. (particularly (Arg)8-NR2B9c peptides in D-form (D-TAT-D-NR2B9c, sequence vdseisslk-rrrrrrrr (SEQ ID NO: 35)) and also L-form (SEQ ID NO: 34)) • 3. After 1 hr neurons were washed once in TM to remove peptide. • 4. After a varying period of time, neurons were exposed to NMDA for 1 hr, after which neurons are placed in TM for 24 h. • 5. Neurons were fixed (3% paraformaldehyde) and stained (DAPI 4′,6-Diamidino-2-phenylindole). The number of pyknotic nuclei as a % of total was counted. Experiments were performed in triplicate.

With “YGRKKRRQRRRKLSSIESDV (Description of sequence L-TAT-L-NR2B9c sequence) [comparative compound, identical to US 20030050243, reference compound]” the “significant protection (duration after washout)” value (Rat cortical neurons [1]; 40 μM NMDA, FIG. 2) was 1 h.

“vdseisslk-rrrqrrkkrgy ([dV][dD][dS][dE][dI][dS][dS][dL][dK][dR][dR][dR][dQ][dR][dR][dK][dK][dR]G[dY]-NH2; N-terminus assumed; SMILES CC[C@@H](C)[C@@H](NC(=O)[C@@H](CCC(=O)O)NC(=O)[C@@H](CO)NC(=O)[C@@H](CC(=O)O)NC(=O)[C@H](N)C(C)C)C(=O)N[C@H](CO)C(=O)N[C@H](CO)C(=O)N[C@H](CC(C)C)C(=O)N[C@H](CCCCN)C(=O)N[C@H](CCCNC(=N)N)C(=O)N[C@H](CCCNC(=N)N)C(=O)N[C@H](CCCNC(=N)N)C(=O)N[C@H](CCC(N)=O)C(=O)N[C@H](CCCNC(=N)N)C(=O)N[C@H](CCCNC(=N)N)C(=O)N[C@H](CCCCN)C(=O)N[C@H](CCCCN)C(=O)N[C@H](CCCNC(=N)N)C(=O)NCC(=O)N[C@H](Cc1ccc(O)cc1)C(N)=O) [D-TAT-D-NR2B9c, inventive fusion peptide of D-TAT transporter and D-NR2B9c]” was tested, and the “efficacy (lowered cell death rate %) versus comparative compound L-TAT-L-NR2B9c” value (Rat cortical neurons [1]; 20 μM NMDA, FIG. 1) was “at least equal, but predominantly significantly increased efficacy”, the “gap between peptide incubation and NMDA addition at which the positive effect shows” value (Rat cortical neurons [1]; 20 μM NMDA, FIG. 1) was no less than 8 h and the “efficacy (lowered cell death rate %) versus comparative compound L-TAT-L-NR2B9c” value (Rat cortical neurons [1]; 40 μM NMDA, FIG. 2) was “at least equal, but predominantly significantly increased efficacy”. The “time window in which the remarkable positive effect becomes apparent” value (Rat cortical neurons [1]; 40 μM NMDA, FIG. 2) was “less than 24 h” and the “significant protection (duration after washout)” value (Rat cortical neurons [1]; 40 μM NMDA, FIG. 2) was “up to 24 hours”.

In the case of “vdseisslk-rrrrrrrr ([dV][dD][dS][dE][dI][dS][dS][dL][dK][dR][dR][dR][dR][dR][dR][dR][dR]) [D-(Arg)8-D-NR2B9c, inventive fusion peptide of D-(Arg)8 transporter and D-NR2B9c]”, the “efficacy (lowered cell death rate %) versus comparative compound L-(Arg)8-L-NR2B9c” value (Rat cortical neurons [2]; 20 μM NMDA, FIG. 3) is reported as “at least equal, but predominantly significantly increased efficacy”, the “superior neuroprotection after washout of the peptide (duration)” value (Rat cortical neurons [2]; 20 μM NMDA, peptide 10 μM for 1 hr, then washout, FIG. 3) is reported as “up to 8 hours” and the “efficacy (lowered cell death rate %) versus comparative compound L-(Arg)8-L-NR2B9c” value (Rat cortical neurons [2]; 40 μM NMDA, up to the 8 hr time point, FIG. 4) is reported as “at least equal, but predominantly significant increased efficacies; also recorded: equal to better protective effects”. The “performance compared with D-TAT-D-NR2B9c” value (Rat cortical neurons [2]; overall, 20 and 40 μM NMDA) was “performs similar to D-TAT-D-NR2B9c (SEQ ID NO: 33)), albeit with a shorter duration of neuroprotective activity”.

— patent US20090281036A1, “FUSION PEPTIDE FOR INHIBITING INTERACTION OF NEURONAL NMDA RECEPTOR (NMDAR) AND NMDAR INTERACTING PROTEINS” (priority 2006, published 2009)
